system: HIV-1 (NL4-3 strain); assay: Viral Kinetics GFP Reporter (ViKinG) assay; format: cell-based; conditions: Human immunodeficiency virus 1, NL43; 50% NHS; MT4-GFP cells infected with HIV-1 NL4-3; mean of at least two independent experiments
Description: Viral Kinetics GFP Reporter (ViKinG) Assay
The ViKinG assay is an in vitro kinetic assay that employs the MT4-gag-GFP reporter cell line (Wang et al., “Assessment of the susceptibility of mutant HIV-1 to antiviral agents.” J Virological Methods 165:230-37 (2010)) to quantify the number of new cells infected in each round of replication. The purpose of the ViKinG assay is to identify agents that inhibit HIV progression. Briefly, HIV infection results in tat transactivation of the stably expressed HIV LTR promoter to drive gagGFP expression. Thus, an increase in the number of GFP-MT4 cells results following HIV infection.
MT4-GFP cells (250,000 cells/ml) were bulk-infected with HIV-1 (NL4-3 strain) at low multiplicity of infection (MOI) in RPMI+10% FBS for 24 hours. Cells were then washed once in RPMI+10% FBS and resuspended RPMI+10% or 50% normal human serum (NHS). Test compounds were serial-diluted in DMSO on an ECHO® liquid handling platform (Labcyte Corp., Sunnyvale, Calif.), along with a triple drug control (integrase, protease and NNRTI compounds). The infected MT4-GFP cells were added to a 384-well poly-D-lysine coated black plate with clear bottom in which the diluted test compounds were placed. The cells were seeded at 8,000 cells per well and the final DMSO concentration was 0.4%. The infected cells (Green GFP cells) were quantified at both 24 and 48 hours post incubation using Acumen® eX3 (TTP Labtech Ltd., Hertfordshire, United Kingdom). Viral reproductive ratio (R0) was determined using the number of infected cells at 48 hours divided by the number of infected cells at 24 hours. Percent viral growth inhibition was calculated by [1−(R−Rtripledrug)/(RDMSO−Rtripledrug)]*100. Compound potency IP or IC50 was determined by a 4-parameter dose response curve analysis.

| SMILES | IC50 [nM] |
| --- | --- |
| N[C@H](C(=O)Nc1cccc(F)c1CC[C@@H]1CNCC2(CCOCC2)O1)[C@@H](c1ccc(Cl)cc1)c1cc(F)cc(F)c1 [Example 96, (βS)-4-chloro-β-(3,5-difluorophenyl)-N-(2-{2-[(2R)-1,9-dioxa-4-azaspiro[5.5]undec-2-yl]ethyl}-3-fluorophenyl)-L-phenylalaninamide] | 80 |
| COC(=O)N[C@H](C(=O)Nc1cncc(F)c1CC[C@@H]1CNCC2(CCCC2)O1)C(c1ccc(F)cc1)c1ccc(F)cc1 [Example 100, methyl {(1S)-1-[bis(4-fluorophenyl)methyl]-2-[(5-fluoro-4-{2-[(7R)-6-oxa-9-azaspiro[4.5]dec-7-yl]ethyl}pyridin-3-yl)amino]-2-oxoethyl}carbamate] | 71 |
| N[C@H](C(=O)Nc1cncc(F)c1CC[C@@H]1CNCC2(CCOCC2)O1)[C@@H](c1ccc(Cl)cc1)c1cccc(OC(F)(F)F)c1 [Example 156, (βS)-4-chloro-N-(4-{2-[(2R)-1,9-dioxa-4-azaspiro[5.5]undec-2-yl]ethyl}-5-fluoropyridin-3-yl)-β-[3-(trifluoromethoxy)phenyl]-L-phenylalaninamide] | 480 |
| N[C@H](C(=O)Nc1cccc(F)c1CC[C@@H]1CNCC2(CCOC2)O1)[C@@H](c1ccc(Cl)cc1)c1cc(F)cc(F)c1 (stereo partly drawn) [Example 162, (βS)-4-chloro-β-(3,5-difluorophenyl)-N-(2-{2-[(7R)-2,6-dioxa-9-azaspiro[4.5]dec-7-yl]ethyl}-3-fluorophenyl)-L-phenylalaninamide] | 180 |

biological target: T1, wildtype HIV-1 protease (Human immunodeficiency virus type 1 group M subtype B, UniProt P04585); assay: Assay for inhibition of microbial expressed HIV protease (Pepcleav); format: biochemical; conditions: wild type HIV-1 protease 20 pM, peptide substrate 400 micromolar, pH 5.5; mean of at least two independent experiments
T1 construct: preincubated with the HIV-1 protease (wild type) enzyme in assay buffer; made in house; host or cells: Escherichia coli
Procedure, shortened: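 E. coli-expressed enzyme preincubated with inhibitor 30 min at room temperature in 50 mM sodium acetate pH 5.5, 100 mM NaCl, 0.1% BSA, then 400 micromolar peptide substrate added with 20 picomolar protease (final), 1 h at 30° C. Product quantified by LC-MS/MS peak area after formic acid/indinavir quench.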

| SMILES | IC50 [nM] |
| --- | --- |
| COC(=O)N[C@H](C(=O)Nc1ccccc1CC[C@@H]1CNC[C@@H](CSc2ccc(Cl)cc2Cl)O1)C(c1ccccc1)c1ccccc1 [Example 25, methyl N-[(1S)-1-benzhydryl-2-[[2-[2-[(2R,6S)-6-[(2,4-dichlorophenyl)sulfanylmethyl]morpholin-2-yl]ethyl]phenyl]amino]-2-oxo-ethyl]carbamate] | 1.5 |
| COC(=O)N[C@H](C(=O)Nc1ccccc1CC[C@@H]1CNC[C@@H](COc2ccc(F)cc2)O1)C(c1ccccc1)c1ccccc1 [Example 46, N-[2-(2-{(2R,6S)-6-[(4-fluorophenoxy)methyl]morpholin-2-yl}ethyl)phenyl]-Nα-(methoxycarbonyl)-β-phenyl-L-phenylalaninamide] | 23 |
| COC(=O)N[C@H](C(=O)Nc1ccccc1CC[C@@H]1CNC[C@@H](CSc2cccc(S(C)(=O)=O)c2)O1)C(c1ccccc1)c1ccccc1 [Example 23, methyl N-[(1S)-1-benzhydryl-2-[[2-[2-[(2R,6S)-6-[(3-methylsulfonylphenyl)sulfanyl-methyl]morpholin-2-yl]ethyl]phenyl]amino]-2-oxo-ethyl]carbamate] | 0.8 |
| CC(C)COC[C@@H]1CNC[C@@H](CCc2c(F)cncc2NC(=O)[C@@H](N)C(c2ccc(F)cc2)c2ccc(F)cc2)O1 [Example 132, 4-fluoro-N-[5-fluoro-4-(2-{(2R,6S)-6-[(2-methylpropoxy)methyl]morpholin-2-yl}ethyl)pyridin-3-yl]-β-(4-fluorophenyl)-L-phenylalaninamide] | 430 |
| COC(=O)N[C@H](C(=O)Nc1ccccc1CC[C@@H]1CNC[C@@H](C[S+]([O-])c2ccc(Cl)cc2)O1)C(c1ccccc1)c1ccccc1 (stereo partly drawn) [Example 57, methyl N-[(1S)-1-benzhydryl-2-[[2-[2-[(2R,6S)-6-[(4-chlorophenyl)sulfinylmethyl]morpholin-2-yl]ethyl]phenyl]amino]-2-oxo-ethyl]carbamate] | 280 |
| COC(=O)N[C@H](C(=O)Nc1cnccc1CC[C@@H]1CNC[C@@H](COc2ccc(C#N)cc2)O1)C(c1ccccc1)c1ccccc1 [Example 81, N-[4-(2-{(2R,6S)-6-[(4-cyanophenoxy)methyl]morpholin-2-yl}ethyl)pyridin-3-yl]-Nα-(methoxycarbonyl)-β-phenyl-L-phenylalaninamide] | 53 |
| COC(=O)N[C@H](C(=O)Nc1ccccc1CC[C@@H]1CNC[C@@H](COc2ccc(-n3cccn3)cc2)O1)C(c1ccccc1)c1ccccc1 [Example 43, N-α-(methoxycarbonyl)-β-phenyl-N-(2-{2-[(2R,6S)-6-{[4-(1H-pyrazol-1-yl)phenoxy]methyl}morpholin-2-yl]ethyl}phenyl)-L-phenylalaninamide] | 4.7 |
| COC(=O)N[C@H](C(=O)Nc1ccccc1CCC1CNC[C@@H](CS(=O)(=O)c2ccc3ccccc3c2)O1)C(c1ccccc1)c1ccccc1 (stereo partly drawn) [Example 4, methyl N-[(1S)-1-benzhydryl-2-[[2-[2-[(6S)-6-(2-naphthylsulfonylmethyl)morpholin-2-yl]ethyl]phenyl]amino]-2-oxo-ethyl]carbamate] | 62 |
| COC(=O)N[C@H](C(=O)Nc1ccccc1CC[C@@H]1CNC[C@@H](CSc2cccc(Br)c2)O1)C(c1ccccc1)c1ccccc1 [Example 20, methyl N-[(1S)-1-benzhydryl-2-[[2-[2-[(2R,6S)-6-[(3-bromophenyl)sulfanylmethyl]morpholin-2-yl]ethyl]phenyl]amino]-2-oxo-ethyl]carbamate] | 2.9 |
| N[C@H](C(=O)Nc1cncc(F)c1CC[C@@H]1CNC[C@@H](COC(=O)NCc2ccc(F)cc2)O1)C(c1ccc(F)cc1)c1ccc(F)cc1 [Example 125, 4-fluoro-N-(5-fluoro-4-{2-[(2R,6S)-6-({[(4-fluorobenzyl)carbamoyl]oxy}methyl)morpholin-2-yl]ethyl}pyridin-3-yl)-β-(4-fluorophenyl)-L-phenylalaninamide] | 15 |
| COC(=O)N[C@H](C(=O)Nc1ccccc1CC[C@@H]1CNC[C@@H](COc2ccc(C#N)cc2)O1)C(c1ccccc1)c1ccccc1 [Example 17, methyl N-[(1S)-1-benzhydryl-2-[[2-[2-[(2R,6S)-6-[(4-cyanophenoxy)methyl]morpholin-2-yl]ethyl]phenyl]amino]-2-oxo-ethyl]carbamate] | 21 |
| COC(=O)N[C@H](C(=O)Nc1ccccc1CC[C@@H]1CNC[C@@H](COc2ccc(S(C)(=O)=O)cc2C)O1)C(c1ccccc1)c1ccccc1 [Example 28, methyl N-[(1S)-1-benzhydryl-2-[[2-[2-[(2R,6S)-6-[(2-methyl-4-methylsulfonyl-phenoxy)methyl]morpholin-2-yl]ethyl]phenyl]amino]-2-oxo-ethyl]carbamate] | 18 |
| COC(=O)N[C@H](C(=O)Nc1ccccc1CC[C@@H]1CNC[C@@H](COc2cccc3cn[nH]c23)O1)C(c1ccccc1)c1ccccc1 [Example 41, N-[2-(2-{(2R,6S)-6-[(1H-indazol-7-yloxy)methyl]morpholin-2-yl}ethyl)phenyl]-Na-(methoxycarbonyl)-b-phenyl-L-phenylalaninamide] | 26 |
| COC(=O)N[C@H](C(=O)Nc1cc(F)ccc1CC[C@@H]1CNC[C@@H](COc2ccc(C#N)cc2)O1)C(c1ccccc1)c1ccccc1 [Example 72, N-[2-(2-{(2R,6S)-6-[(4-cyanophenoxy)methyl]morpholin-2-yl}ethyl)-5-fluorophenyl]-Nα-(methoxycarbonyl)-β-phenyl-L-phenylalaninamide] | 23 |
| COC(=O)N[C@H](C(=O)Nc1cccnc1CC[C@@H]1CNC[C@@H](CSc2ncccc2Cl)O1)C(c1ccccc1)c1ccccc1 [Example 80, N-(2-{2-[(2R,6S)-6-{[(3-chloropyridin-2-yl)sulfanyl]methyl}morpholin-2-yl]ethyl}pyridin-3-yl)-Nα-(methoxycarbonyl)-β-phenyl-L-phenylalaninamide] | 58 |
| COC(=O)N[C@H](C(=O)Nc1ccccc1CC[C@@H]1CNC[C@@H](CCOc2ccc(C#N)cc2)O1)C(c1ccccc1)c1ccccc1 [Example 64, N-[2-(2-{(2R,6R)-6-[2-(4-cyanophenoxy)ethyl]morpholin-2-yl}ethyl)phenyl]-Nα-(methoxycarbonyl)-β-phenyl-L-phenylalaninamide] | 28 |
| COC(=O)N[C@H](C(=O)Nc1ccccc1CC[C@@H]1CNC[C@@H](CSc2nnc(Cn3nccc3C)o2)O1)C(c1ccccc1)c1ccccc1 [Example 33, methyl N-[(1S)-1-benzhydryl-2-[[2-[2-[(2R,6S)-6-[[5-[(5-methylpyrazol-1-yl)methyl]-1,3,4-oxadiazol-2-yl]sulfanylmethyl]morpholin-2-yl]ethyl]phenyl]amino]-2-oxo-ethyl]carbamate] | 0.67 |
| COC(=O)N[C@H](C(=O)Nc1cccnc1CC[C@@H]1CNC[C@@H](COc2cccc(C#N)c2)O1)C(c1ccccc1)c1ccccc1 [Example 113, N-[2-(2-{(2R,6S)-6-[(3-cyanophenoxy)methyl]morpholin-2-yl}ethyl)pyridin-3-yl]-Nα-(methoxycarbonyl)-β-phenyl-L-phenylalaninamide] | 510 |
